Reference: patent US20180207294A1, “NON-ALCOHOLIC FATTY LIVER REGULATING FACTOR 14-3-3 PROTEIN” (Korea University Research and Business Foundation, priority 2015, published 2018)

Assays:
[1] = target: T1, PPARγ2 S273A mutant (Homo sapiens, UniProt P37231, S273A); assay: GST-pull down assay with PPARγ2 S112A and S273A mutants (HEK-293T); assay type: binding; settings: FIG. 4A, 4B
T1 construct: expressed in transfected cells; host or cells: HEK-293T
T1 sequence (P37231 1-505 S273A): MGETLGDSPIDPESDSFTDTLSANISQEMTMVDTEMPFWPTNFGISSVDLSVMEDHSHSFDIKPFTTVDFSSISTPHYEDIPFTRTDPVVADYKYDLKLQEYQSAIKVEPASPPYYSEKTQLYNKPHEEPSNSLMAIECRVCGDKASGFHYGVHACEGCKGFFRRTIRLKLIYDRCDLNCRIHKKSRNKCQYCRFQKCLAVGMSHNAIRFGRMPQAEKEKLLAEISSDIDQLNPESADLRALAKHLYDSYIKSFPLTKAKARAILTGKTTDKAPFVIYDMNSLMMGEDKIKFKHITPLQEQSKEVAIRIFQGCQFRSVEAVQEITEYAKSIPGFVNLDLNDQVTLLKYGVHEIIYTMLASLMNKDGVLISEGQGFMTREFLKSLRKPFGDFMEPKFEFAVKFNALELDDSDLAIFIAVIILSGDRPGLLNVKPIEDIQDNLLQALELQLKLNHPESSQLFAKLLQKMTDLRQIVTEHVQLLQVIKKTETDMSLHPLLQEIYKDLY
Procedure: 14-3-3 proteins are known to bind to phosphorylated residues of a target protein. Phosphorylated residues associated with the activity of PPARγ2 are known to be serine 112 and serine 273. Thus, PPARγ2 mutants (PPARγ2 S112A and S273A) with non-phosphorylated serine 112 and serine 273 residues were produced and binding thereof with 14-3-3 proteins was verified through GST-pull down assay.
HEK-293T cells were seeded in a 100 mm plate at a density of 2×10^6 cells per each well, and then transfected with Flag-PPARγ2 (WT) DNA (4 μg), Flag-PPARγ2 (S112A) DNA (4 μg), Flag-PPARγ2(S273A) DNA (4 μg), and mGST-14-3-3β (4 μg) or mGST-14-3-3γ (4 μg) using an E-fection plus reagent (Lugen). As for Flag-PPARγ2 (S112A) DNA and Flag-PPARγ2 (S273A) DNA, DNA fragments amplified through polymerase chain reaction (PCR) were cloned into a Flag-tagged vector. A ratio of DNA to the E-fection plus reagent was 1:2, and this method was performed according to a manufacturer's manual. The corresponding cells were washed with ice-cold PBS and lysed using 500 μl/well of a lysis buffer (150 mM NaCl, 1 mM EDTA, 1% Nonidet P-40, 5% glycerol, 25 mM tris-HCl, pH 7.5, protease inhibitor added), and the lysed cells were centrifuged at 10,000×g and 4° C. for 10 minutes to extract proteins. […]

[2] = test system: HepG2 cells; assay: PPARγ2 target gene mRNA (PCR) with 14-3-3 overexpression and oleic acid, HepG2 cells; assay type: cell-based, human; settings: 14-3-3 overexpression, 200 μM oleic acid 72 hours, FIG. 7A
Procedure: HepG2 cells were seeded in a 6-well plate at a density of 4×10^5 cells per each well, and then transfected with GFP-14-3-3β DNA (4 μg) or GFP-14-3-3γ DNA (4 μg) using an E-fection plus reagent (Lugen). A ratio of DNA to the E-fection plus reagent was 1:2, and this method was performed according to a manufacturer's manual. After transfection, the cells were treated with 200 μM of oleic acid (OA) for 72 hours, and for mRNA extraction, the corresponding cells were lysed with 1 ml/well of TRIzol (Invitrogen), 200 μl of chloroform was added thereto and mixed well, the resultant cells were maintained at room temperature for 5 minutes and then centrifuged at 12,000×g and 4° C. for 15 minutes, the obtained supernatant was mixed with 500 μl of isopropanol and then put on ice for 10 minutes, and the resulting supernatant was centrifuged at 12,000×g and 4° C. for 15 minutes to remove a supernatant, and then pellets were dissolved with tertiary distilled water treated with diethyl pyrocarbonate (DEPC). 2 μg of mRNA was synthesized into cDNA using a Superscript First Strand cDNA Synthesis Kit (Bioneer, Daejeon, South Korea) and the synthesized cDNA as a template was amplified through polymerase chain reaction (PCR) using primers specific to PPARγ2 (SEQ ID NOS: 1 and 2), 14-3-3β (SEQ ID NOS: 3 and 4), 14-3-3γ (SEQ ID NOS: 5 and 6), SREBP-1c, FAT/CD36, and β-actin of humans, and was amplified through real-time PCR using primers specific to SREBP-1c, FAT/CD36, and GAPDH of mice. β-actin and GAPDH were used as controls to see whether mRNAs of the respective cells were compared in the same amount.

| Substance | binding with PPARγ2 S273A mutant [1] | mRNA expression of FAT/CD36 [2] | mRNA expression of SREBP-1c [2] |
| --- | --- | --- | --- |
| 14-3-3γ: 14-3-3 isoform protein, overexpressed by DNA transfection; regulating factor that decreases transcriptional activity of PPARγ2 | suppressed | reduced | reduced |
| 14-3-3β: 14-3-3 isoform protein, overexpressed by DNA transfection; regulating factor that increases transcriptional activity of PPARγ2 | suppressed | further increased | further increased |
